Experimental data taken from ChEMBL document CHEMBL1201862, “PubChem BioAssay data set” (2004).
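Protocol summary: plate cells (96-well), add compound at 5 concentrations, incubate 48 h, interpolate endpoints linearly. The concentration for 50% growth inhibition is given as GI50.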 The source made the active and inactive calls. Cut-off read from the data, not from the text of the source: active = GI50 up to about 1.1 µM and inactive = higher.

Legend:
Assay in all cases: growth of human tumour cells (NCI), 48 h
OVCAR-4 = tested on: OVCAR-4
EKVX = tested on: EKVX
OVCAR-8 = tested on: OVCAR-8
CCRF-CEM = tested on: CCRF-CEM
786-0 = tested on: 786-0
RXF 631 = tested on: RXF 631
UACC-257 = tested on: UACC-257
SR = tested on: SR
ACHN = tested on: ACHN
HOP-92 = tested on: HOP-92
M19-MEL = tested on: M19-MEL
NCI-H226 = tested on: NCI-H226
UACC-62 = tested on: UACC-62
LOX IMVI = tested on: LOX IMVI
MOLT-4 = tested on: MOLT-4
SK-MEL-2 = tested on: SK-MEL-2
SF-539 = tested on: SF-539
RXF 393 = tested on: RXF 393
LXFL 529 = tested on: LXFL 529
HL-60 = tested on: HL-60
NCI-H23 = tested on: NCI-H23
U-251 = tested on: U-251
CAKI-1 = tested on: CAKI-1
OVCAR-3 = tested on: OVCAR-3
SF-295 = tested on: SF-295
KM-20L2 = tested on: KM-20L2
SW-620 = tested on: SW-620
HOP-62 = tested on: HOP-62
K562 = tested on: K562
UO-31 = tested on: UO-31
SNB-19 = tested on: SNB-19
SNB-75 = tested on: SNB-75
SN12C = tested on: SN12C
M14 = tested on: M14
COLO 205 = tested on: COLO 205
HOP-18 = tested on: HOP-18
DMS-114 = tested on: DMS-114
DLD-1 = tested on: DLD-1
HCT-15 = tested on: HCT-15
TK-10 = tested on: TK-10
OVCAR-5 = tested on: OVCAR-5
SK-MEL-28 = tested on: SK-MEL-28
Malme-3M = tested on: Malme-3M
IGROV-1 = tested on: IGROV-1
HT-29 = tested on: HT-29
A498 = tested on: A498
RPMI-8226 = tested on: RPMI-8226
SF-268 = tested on: SF-268
HCT-116 = tested on: HCT-116
SK-MEL-5 = tested on: SK-MEL-5
NCI-H460 = tested on: NCI-H460
SK-OV-3 = tested on: SK-OV-3
XF498 = tested on: XF498
HCC 2998 = tested on: HCC 2998
DMS-273 = tested on: DMS-273
A549 = tested on: A549
KM12 = tested on: KM12
SNB-78 = tested on: SNB-78
NCI-H522 = tested on: NCI-H522
DU-145 = tested on: DU-145

## O=C1N[C@@H](O)[C@@H]2ON=C(c3ccccc3)[C@H]12
OVCAR-4
  GI50: > 100 µM (inactive)
EKVX
  GI50: > 100 µM (inactive)
OVCAR-8
  GI50: > 100 µM (inactive)
CCRF-CEM
  GI50: > 100 µM (inactive)
786-0
  GI50: > 100 µM (inactive)
RXF 631
  GI50: > 100 µM (inactive)
UACC-257
  GI50: > 100 µM (inactive)
SR
  GI50: > 100 µM (inactive)
ACHN
  GI50: > 100 µM (inactive)
HOP-92
  GI50: > 100 µM (inactive)
M19-MEL
  GI50: > 100 µM (inactive)
NCI-H226
  GI50: > 100 µM (inactive)
UACC-62
  GI50: > 100 µM (inactive)
LOX IMVI
  GI50: > 100 µM (inactive)
MOLT-4
  GI50: > 100 µM (inactive)
SK-MEL-2
  GI50: > 100 µM (inactive)
SF-539
  GI50: > 100 µM (inactive)
RXF 393
  GI50: > 100 µM (inactive)
LXFL 529
  GI50: > 100 µM (inactive)
HL-60
  GI50: > 100 µM (inactive)
NCI-H23
  GI50: > 100 µM (inactive)
U-251
  GI50: > 100 µM (inactive)
CAKI-1
  GI50: > 100 µM (inactive)
OVCAR-3
  GI50: > 100 µM (inactive)
SF-295
  GI50: > 100 µM (inactive)
KM-20L2
  GI50: > 100 µM (inactive)
SW-620
  GI50: > 100 µM (inactive)
HOP-62
  GI50: > 100 µM (inactive)
K562
  GI50: > 100 µM (inactive)
UO-31
  GI50: > 100 µM (inactive)
SNB-19
  GI50: > 100 µM (inactive)
SNB-75
  GI50: > 100 µM (inactive)
SN12C
  GI50: > 100 µM (inactive)
M14
  GI50: > 100 µM (inactive)
COLO 205
  GI50: > 100 µM (inactive)
HOP-18
  GI50: > 100 µM (inactive)
DMS-114
  GI50: > 100 µM (inactive)
DLD-1
  GI50: > 100 µM (inactive)
HCT-15
  GI50: > 100 µM
TK-10
  GI50: > 100 µM (inactive)
OVCAR-5
  GI50: > 100 µM (inactive)
SK-MEL-28
  GI50: > 100 µM (inactive)
Malme-3M
  GI50: > 100 µM (inactive)
IGROV-1
  GI50: > 100 µM (inactive)
HT-29
  GI50: > 100 µM (inactive)
A498
  GI50: > 100 µM (inactive)
RPMI-8226
  GI50: > 100 µM (inactive)
SF-268
  GI50: > 100 µM (inactive)
HCT-116
  GI50: > 100 µM (inactive)
SK-MEL-5
  GI50: > 100 µM (inactive)
NCI-H460
  GI50: > 100 µM (inactive)
SK-OV-3
  GI50: > 100 µM (inactive)
XF498
  GI50: > 100 µM (inactive)
HCC 2998
  GI50: > 100 µM (inactive)
DMS-273
  GI50: > 100 µM (inactive)
A549
  GI50: > 100 µM (inactive)
KM12
  GI50: > 100 µM (inactive)

## CN(C=O)/C=C/c1cc(O)ccc1O
OVCAR-4
  GI50: 17.6 µM (inactive)
EKVX
  GI50: 40.6 µM (inactive)
OVCAR-8
  GI50: 30.3 µM (inactive)
CCRF-CEM
  GI50: 18.7 µM (inactive)
786-0
  GI50: 18.5 µM (inactive)
RXF 631
  GI50: 47.5 µM (inactive)
UACC-257
  GI50: 30.3 µM (inactive)
SR
  GI50: 20.5 µM (inactive)
ACHN
  GI50: 16.1 µM (inactive)
HOP-92
  GI50: 19.9 µM (inactive)
M19-MEL
  GI50: 20.8 µM (inactive)
NCI-H226
  GI50: 39.7 µM (inactive)
UACC-62
  GI50: 31.3 µM (inactive)
LOX IMVI
  GI50: 23.2 µM (inactive)
MOLT-4
  GI50: 10.8 µM (inactive)
SK-MEL-2
  GI50: 35.6 µM (inactive)
SF-539
  GI50: 38.3 µM (inactive)
RXF 393
  GI50: 18 µM (inactive)
LXFL 529
  GI50: 18.8 µM (inactive)
HL-60
  GI50: 14.2 µM (inactive)
NCI-H23
  GI50: 36.8 µM (inactive)
SNB-78
  GI50: 30.8 µM (inactive)
U-251
  GI50: 39.6 µM (inactive)
CAKI-1
  GI50: 20.3 µM (inactive)
OVCAR-3
  GI50: 18.2 µM (inactive)
SF-295
  GI50: 32.5 µM (inactive)
NCI-H522
  GI50: 4.17 µM (inactive)
KM-20L2
  GI50: > 46 µM (inactive)
SW-620
  GI50: 12.8 µM (inactive)
HOP-62
  GI50: > 43 µM (inactive)
K562
  GI50: 24.9 µM (inactive)
UO-31
  GI50: 32 µM (inactive)
DU-145
  GI50: 33.4 µM (inactive)
SNB-19
  GI50: > 72.8 µM (inactive)
SNB-75
  GI50: 21.7 µM (inactive)
SN12C
  GI50: 20.9 µM (inactive)
M14
  GI50: 41.3 µM (inactive)
COLO 205
  GI50: 21.3 µM (inactive)
HOP-18
  GI50: 14.6 µM (inactive)
DMS-114
  GI50: 45.9 µM (inactive)
DLD-1
  GI50: 20 µM (inactive)
HCT-15
  GI50: 36.6 µM
TK-10
  GI50: 26.8 µM (inactive)
OVCAR-5
  GI50: 40.6 µM (inactive)
SK-MEL-28
  GI50: > 42.1 µM (inactive)
Malme-3M
  GI50: 39.4 µM (inactive)
IGROV-1
  GI50: 51.3 µM (inactive)
HT-29
  GI50: 32.6 µM (inactive)
A498
  GI50: > 68.2 µM (inactive)
RPMI-8226
  GI50: 26.1 µM (inactive)
SF-268
  GI50: 25.8 µM (inactive)
HCT-116
  GI50: 33 µM (inactive)
SK-MEL-5
  GI50: 42 µM (inactive)
NCI-H460
  GI50: > 60.7 µM (inactive)
SK-OV-3
  GI50: > 86.1 µM (inactive)
HCC 2998
  GI50: > 63 µM (inactive)
DMS-273
  GI50: > 39.4 µM (inactive)
A549
  GI50: > 78 µM (inactive)
KM12
  GI50: 63.7 µM (inactive)
